The source of these data is patent US20080119521A1, “Butyrlcholinesterase Selective Inhibitors” (priority 2004, published 2008).

The subject of data set [1] is human neuroblastoma cell line SH-SY5Y. Kind of data set: Toxicity measurement, LDH release cytotoxicity. Type of data set: cell-based. Conditions: SH-SY5Y cells, 24 hours exposure. As to the method: The cytotoxicity effect of the molecules was tested in the human neuroblastoma cell line SH-SY5Y. These cells were cultured in 96-well plates in a 1:1 mixture of Ham's F12 nutrients and essential medium (MEM), supplemented with 10% fetal bovine serum and 1% penicillin/streptomycin, and grown in a 5% CO2 humidified incubator at 37° C.
The cells were plated at 10^4 cells for each well, at least, 48 hours before the toxicity measure. Cells were exposed for 24 hours to the compounds at different concentrations (from 10^−5 to 10^−9), quantitative assessment of cell death was made by measurement of the intracellular enzyme lactate dehydrogenase (LDH) (citotoxicity detection kit, Roche). The quantity of LDH was measured and evaluated in a microplate reader Anthos 2010, at 492 and 620 nm. Controls were taken as 100% viability.
(In general: LDH in the medium is a marker of cell lysis.)

In the next data set the target is AChE peripheral site (Homo sapiens, UniProt P22303). Kind of data set: Propidium competition, fluorescence. Type of data set: binding. The note with it: 5 μM AChE incubated at least 6 hours, 20 μM propidium iodide, 1 mM Tris/HCl pH 8.0. As to the method: Fluorescence was measured in a Fluostar optima plate reader (BMG). Measurements were carried out in 100 μl solution volume, in 96-well plates. The buffer used was 1 mM Tris/HCl, pH 8.0. 5 μM AchE was incubated, at least 6 hours, with the molecules at different concentrations. 20 μM propidium iodide was added 10 min before fluorescence measurement. The excitation wavelength was 485 nm, and that of emission, 620 nm.

For another data set, the target named is T1, BuChE from human serum (Homo sapiens, UniProt P06276).
T1 construct: 0.1 unit/ml BuChE from human serum; from tissue; host or cells: human serum
The data set is described as follows: Butyrylcholinesterase (BuChE) inhibition, Ellman colorimetric method. Type of data set: biochemical. As to the method:
Butyrylcholinesterase (BuChE) Inhibition (from Human Serum)
BuChE inhibitory activity was evaluated at 30° C. by the colorimetric method reported by Ellman [Ellman, G. L.; Courtney, K. D.; Andres, B.; Featherstone, R. M. Biochem. Pharmacol. 1961, 7, 88-95]. The assay solution consisted of 0.1 unit/ml BuChE from human serum, 0.1 M sodium phosphate buffer pH 8, 0.3 mM 5,5′-dithiobis (2-nitrobenzoic acid) (DTNB, Ellman's reagent), and 0.5 mM butyrylthiocholine iodide as the substrate of the enzymatic reaction. Enzyme activity was determined by measuring the absorbance at 405 nm during 5 minutes with a microplate reader Digiscan 340T. The tested compounds were preincubated with the enzyme for 10 minutes at 30° C. The reaction rate was calculated with, at least, triplicate measurements. The IC50 is defined as the concentration of each compound that reduces a 50% the enzymatic activity with respect to that without inhibitors.
A general note: Ellman's reagent forms a yellow product with free thiols.

In data set [2] the target is T2, AChE from bovine erythrocytes (Bos taurus, UniProt P23795).
T2 construct: 0.2 unit/ml AChE (Sigma Chemical Co. from bovine erythrocytes); purchased Sigma Chemical Co; host or cells: bovine erythrocytes
T2 sequence (P23795 31-614 isoform P23795-2 limits assumed): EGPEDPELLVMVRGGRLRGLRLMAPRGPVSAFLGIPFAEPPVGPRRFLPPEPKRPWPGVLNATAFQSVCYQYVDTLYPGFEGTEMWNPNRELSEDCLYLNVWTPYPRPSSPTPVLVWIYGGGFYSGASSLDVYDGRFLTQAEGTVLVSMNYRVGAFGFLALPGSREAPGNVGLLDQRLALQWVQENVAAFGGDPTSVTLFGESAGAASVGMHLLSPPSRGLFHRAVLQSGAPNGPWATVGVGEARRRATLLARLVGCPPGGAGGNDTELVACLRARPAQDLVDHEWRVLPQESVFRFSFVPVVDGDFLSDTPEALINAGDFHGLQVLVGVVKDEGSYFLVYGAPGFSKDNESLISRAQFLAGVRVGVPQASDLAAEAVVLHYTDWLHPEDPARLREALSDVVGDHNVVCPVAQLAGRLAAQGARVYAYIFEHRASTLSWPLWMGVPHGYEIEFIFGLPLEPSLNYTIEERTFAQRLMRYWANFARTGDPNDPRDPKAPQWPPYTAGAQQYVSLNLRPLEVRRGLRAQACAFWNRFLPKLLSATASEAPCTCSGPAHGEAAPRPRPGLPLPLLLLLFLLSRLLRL
The data set is described as follows: Acetylcholinesterase (AChE) inhibition, Ellman colorimetric method. Type of data set: biochemical. As to the method: Acetylcholinesterase (AChE) Inhibition (from Bovine Erythrocytes)
AChE inhibitory activity was evaluated at 30° C. by the colorimetric method reported by Ellman [Ellman, G. L.; Courtney, K. D.; Andres, B.; Featherstone, R. M. Biochem. Pharmacol. 1961, 7, 88-95]. The assay solution consisted of 0.1 M phosphate buffer pH 8, 0.3 mM 5,5′-dithiobis (2-nitrobenzoic acid) (DTNB, Ellman's reagent), 0.2 unit/ml AChE (Sigma Chemical Co. from bovine erythrocytes), and 0.5 mM acetylthiocholine iodide as the substrate of the enzymatic reaction. The compounds tested were added to the assay solution and pre incubated with the enzyme for 5 min at 30° C. After that period, the substrate was added. The absorbance changes at 405 nm were recorded for 5 min with a microplate reader Digiscan 340T, the reaction rates were compared, and the percent inhibition due to the presence of test compounds was calculated. The reaction rate was calculated with, at least, triplicate measurements, and the percent inhibition due to the presence of test compound was calculated relative to the compound-free control. The compound concentration producing 50% of AChE inhibition (IC50) was determined.

SMILES strings stand for the structures. Read-outs that look alike come from different tables or passages of the source.

T1 sequence (P06276 29-602): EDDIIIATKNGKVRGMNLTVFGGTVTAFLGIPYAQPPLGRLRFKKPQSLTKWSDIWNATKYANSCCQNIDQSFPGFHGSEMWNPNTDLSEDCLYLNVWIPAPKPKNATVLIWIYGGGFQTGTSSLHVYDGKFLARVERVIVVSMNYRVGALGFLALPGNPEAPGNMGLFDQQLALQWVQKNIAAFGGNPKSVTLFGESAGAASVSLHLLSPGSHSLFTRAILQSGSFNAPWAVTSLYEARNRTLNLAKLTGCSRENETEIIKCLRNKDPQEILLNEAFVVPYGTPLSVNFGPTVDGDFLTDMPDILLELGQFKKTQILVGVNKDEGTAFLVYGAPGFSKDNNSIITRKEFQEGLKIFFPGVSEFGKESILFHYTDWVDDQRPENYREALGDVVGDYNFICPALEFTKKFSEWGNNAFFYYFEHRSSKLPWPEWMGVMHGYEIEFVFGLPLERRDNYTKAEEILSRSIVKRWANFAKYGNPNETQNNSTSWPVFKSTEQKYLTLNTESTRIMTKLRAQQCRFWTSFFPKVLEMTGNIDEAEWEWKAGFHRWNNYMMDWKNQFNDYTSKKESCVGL
Sequence of AChE peripheral site (P22303 32-614): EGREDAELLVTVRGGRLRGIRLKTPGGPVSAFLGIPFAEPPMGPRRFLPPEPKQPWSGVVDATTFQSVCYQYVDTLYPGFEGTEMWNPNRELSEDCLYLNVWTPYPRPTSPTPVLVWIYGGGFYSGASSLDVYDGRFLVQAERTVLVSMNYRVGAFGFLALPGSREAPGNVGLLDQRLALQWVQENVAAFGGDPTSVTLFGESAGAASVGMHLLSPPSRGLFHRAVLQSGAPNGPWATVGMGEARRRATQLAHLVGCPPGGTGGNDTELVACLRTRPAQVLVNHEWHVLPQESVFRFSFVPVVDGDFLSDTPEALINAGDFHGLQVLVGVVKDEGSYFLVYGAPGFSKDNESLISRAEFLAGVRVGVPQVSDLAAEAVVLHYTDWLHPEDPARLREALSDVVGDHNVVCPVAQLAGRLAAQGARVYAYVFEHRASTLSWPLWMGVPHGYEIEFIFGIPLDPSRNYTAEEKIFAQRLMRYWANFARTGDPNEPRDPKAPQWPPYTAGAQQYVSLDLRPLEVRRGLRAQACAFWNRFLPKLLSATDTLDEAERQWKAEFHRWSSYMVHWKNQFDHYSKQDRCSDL

In data set [1], `O=C(Cc1c[nH]c2ccccc12)NCCC1CCN(Cc2ccccc2)CC1` [Compound 1, N-[2-(1-Benzyl-piperidin-4-yl)-ethyl]-2-(lH-indol-3-yl)-acetamide] yielded a Toxicity above 100 µM. The Propidium competition on AChE peripheral site worked out at 1 µM. The IC50 at BuChE from human serum stood at 0.8 nM; in data set [2], 200 nM.

On to `Cn1cc(CC(=O)NCCC2CCN(Cc3ccccc3)CC2)c2ccccc21` [Compound 2, N-[2-(1-Benzyl-piperidin-4-yl)-ethyl]-2-(1-methyl-1H-indol-3-yl)-acetamide], for which the Toxicity in data set [1] is above 100 µM. The same compound gave a Propidium competition at AChE peripheral site of 100 µM. For the same compound, the figures for the IC50 (on BuChE from human serum; in data set [2]) were 1 nM and 400 nM, respectively.

`Cc1[nH]c2ccccc2c1CC(=O)NCCC1CCN(Cc2ccccc2)CC1` [Compound 3, N-[2-(1-Benzyl-piperidin-4-yl)-ethyl]-2-(2-methyl-1H-indol-3-yl)-acetamide] displayed a Toxicity in data set [1] above 100 µM. The Propidium competition on AChE peripheral site amounted to 100 µM. In addition, the IC50 at BuChE from human serum is 2 nM; in data set [2], 200 nM.

For the compound `O=C(Cc1c[nH]c2ccc(Br)cc12)NCCC1CCN(Cc2ccccc2)CC1` [Compound 4, N-[2-(1-Benzyl-piperidin-4-yl)-ethyl]-2-(5-bromo-1H-indol-3-yl)-acetamide], the Toxicity in data set [1] is above 100 µM. At AChE peripheral site, this compound came in with a Propidium competition of 1 µM. Further, the results for the IC50 (at BuChE from human serum; in data set [2]) were 0.25 nM and 250 nM, respectively.

With `O=C(CCc1c[nH]c2ccccc12)NCCC1CCN(Cc2ccccc2)CC1` [Compound 5, N-[2-(1-Benzyl-piperidin-4-yl)-ethyl]-3-(1H-indol-3-yl)-propionamide], the Toxicity in data set [1] is above 100 µM. The compound also came in with a Propidium competition at AChE peripheral site of 100 µM. For the same compound, the IC50 against BuChE from human serum came out at 0.05 nM; in data set [2], 2000 nM. Further, at BuChE from human serum (BuChE versus AChE), the “selectivity with respect to AChE” value is 5 orders of magnitude.

As to `O=C(CCCc1c[nH]c2ccccc12)NCCC1CCN(Cc2ccccc2)CC1` [Compound 6, N-[2-(1-Benzyl-piperidin-4-yl)-ethyl]-4-(1H-indol-3-yl)-butyramide], the Toxicity in data set [1] was above 100 µM. Further, the Propidium competition on AChE peripheral site worked out at 100 µM. Moreover, the IC50 came to 5 nM on BuChE from human serum and 300 nM in data set [2].

Regarding `O=C(NCCC1CCN(Cc2ccccc2)CC1)OCCc1c[nH]c2ccccc12` [Compound 7, [2-(1-Benzyl-piperidin-4-yl)-ethyl]-carbamic acid 2-(1H-indol-3-yl)-ethyl ester], the Toxicity in data set [1] is above 100 µM. For the same compound, the IC50 turned out to be 30 nM at BuChE from human serum (BuChE from human serum, 30° C., pH 8, 10 min preincubation, butyrylthiocholine iodide substrate, read-out: IC50 BuChE) and 1000 nM in data set [2] (AChE from bovine erythrocytes, 30° C., pH 8, 5 min preincubation, acetylthiocholine iodide substrate, read-out: IC50 AChE).

For orientation: IC50 means the concentration that gives 50% inhibition.
